Reference: US20060183901A1, “Crystalline form of an indazole-carboxamide compound” (THERAVANCE, INC., priority 2005, published 2006)
Values belong to the molecule of their own block, whether it stands above or below them.

What was measured:
Type in all cases: physicochemical
[1] = Dynamic moisture sorption assessment; conditions: humidity range of 40% to 60% relative humidity
Method: Dynamic moisture sorption (DMS) assessment was performed at 25° C. using a VTI atmospheric microbalance, SGA-100 system (VTI Corp., Hialeah, Fla. 33016). A sample size of approximately 5-10 mg was used and the humidity was set at the ambient value at the start of the analysis. A typical DMS analysis consisted of three scans: ambient to 2% relative humidity (RH), 2% RH to 90% RH, 90% RH to 5% RH at a scan rate of 5% RH/step. The mass was measured every two minutes and the RH was changed to the next value (+5% RH) when the mass of the sample was stable to within 0.01% for 5 consecutive points. Representative DMS traces for samples of crystalline dihydrochloride and dihydrobromide salts of the invention are shown in FIGS. 5 and 6, respectively.

[2] = Differential scanning calorimetry (DSC)
Method: Differential scanning calorimetry (DSC) was performed using a TA Instruments
Model Q-100 module. Data were collected and analyzed using TA Instruments Thermal Advantage for Q Series™ software. A sample of about 1-2 mg was accurately weighed into an aluminum pan with lid. The sample was evaluated using a linear heating ramp of 5° C./min from ambient temperature to at least 225° C. The DSC cell was purged with dry nitrogen during use. Representative DSC traces for samples of the crystalline dihydrochloride and dihydrobromide salts of the invention are shown in FIGS. 2 and 4, respectively.
(§1) The crystalline acid salts of the compound of formula I of Comparative Examples 1-4 were analyzed by PXRD, DSC, and TGA. The temperatures at which endothermic heat flow was observed by DSC, and weight loss was observed by TGA, along with confirmation of crystallinity by PXRD are summarized in Table II where the stoichiometry is indicated by the number of molar equivalents of acid used to prepare the acid salt.

[3] = Thermogravimetric analysis (TGA)
Method: Thermogravimetric analysis (TGA) was performed using a TA Instruments Model Q-500 module. Data were collected and analyzed using TA Instruments Thermal Advantage for Q Series™ software. […] The balance and furnace chambers were purged with nitrogen during use. Representative TGA traces for samples of crystalline dihydrochloride and dihydrobromide salts of the invention are also shown in FIGS. 2 and 4, respectively.
as §1

[4] = Solid state stability assessment (HPLC, Karl Fischer)
Method: Samples of the dihydrochloride salt of the invention, about 100 mg each, were stored in multiple 4 mL glass vials with Teflon lined lids at 25° C. and 60% relative humidity (RH) and at 40° C. and 75% RH in open and closed containers. At specific intervals, the contents of a representative vial was removed and analyzed by the Karl Fisher method for water content and by the following HPLC method: • Column: Agilent Zorbax Bonus RP, 4.6×250 mm, 5 μm (Agilent Part No. 880668-901); • Mobile Phase A: 88% water, 2% acetonitrile, 10% 100 mM potassium phosphate; • Mobile Phase B: 20% water, 70% acetonitrile; 10% 100 mM potassium phosphate; • Flow rate: 1.5 mL/min; • Injection Volume: 10 μL • Detector: 214 nm; • Gradient—Time in minutes (% Mobile Phase B): 0.0 (2); 1.0 (2); 9.0 (22); • 19.0 (28); 33.0 (63); 36.3 (100); 37.0 (2); and 42.0 (2).
Samples were prepared as 0.25 to 0.75 mg/mL solutions in 5% acetonitrile, 85% water, 10% 100 mM potassium phosphate for injection onto the HPLC.
The initial water content was 1.2%, as determined by Karl Fischer titration using a Brinkman Metrohm (Westbury, N.Y.) Karl Fischer Model 831 coulometer. After 6 months the water content of the samples stored in open containers at 25° C./60% RH and at 40° C./75% RH was 2.9% and 5.3%, respectively, an increase of 1.7% and 4.1%, respectively.

[5] = Storage stability of the crystalline hydrate at 40° C. and 75% RH
Method: A sample of the dihydrochloride salt of the invention, about 50 mg, was stored in a 20 mL glass vial at 40° C. and 75% relative humidity. At specific intervals, aliquots of sample were dispensed and analyzed by PXRD and by DSC and TGA. The low temperature (i.e. below 150° C.) features in the DSC and TGA traces are characteristic of a hydrate. The hydrate form is observed to be stable when stored at 40° C. and 75% RH.

[6] = 6 months, open containers, 25° C./60% RH
[7] = 6 months, open containers, 40° C./75% RH
[8] = six months at 25° C. and 60% relative humidity

Molecule: Br.Br.CC(=O)N1CCN(CCN2[C@@H]3CC[C@H]2CC(NC(=O)c2nn(C(C)C)c4ccccc24)C3)CC1 (stereo partly drawn) [dihydrobromide salt, 1-isopropyl-1H-indazole-3-carboxylic Acid {(1S,3R,5R)-8-[2-(4-acetylpiperazin-1-yl)ethyl]-8-azabicyclo[3.2.1]oct-3-yl}amide dihydrobromide]
weight gain (hygroscopicity) [1]: less than 1%
DSC: temperature below which no (significant) thermal events [2]: about 230 °C
TGA: temperature below which no (significant) thermal event [3]: about 250 °C

Molecule: CC(=O)N1CCN(CCN2[C@@H]3CC[C@H]2CC(NC(=O)c2nn(C(C)C)c4ccccc24)C3)CC1.Cc1ccc(S(=O)(=O)O)cc1 (stereo partly drawn) [tosylate, p-toluene Sulfonic Acid Salt of 1-isopropyl-1H-indazole-3-carboxylic acid {(1S,3R,5R)-8-[2-(4-acetylpiperazin-1-yl)ethyl]-8-azabicyclo[3.2.1]oct-3-yl}amide]
DSC endotherm (temperature of endothermic heat flow) [2]: >200 °C

DSC endotherm (temperature of endothermic heat flow) [2]: ˜100 °C
TGA: temperature of weight loss [3]: ˜100 °C
Molecule: CC(=O)O [acetate]

Molecule: CC(=O)N1CCN(CCN2[C@@H]3CC[C@H]2C[C@@H](NC(=O)c2nn(C(C)C)c4ccccc24)C3)CC1.Cl.Cl [dihydrochloride salt, 1-isopropyl-1H-indazole-3-carboxylic Acid {(1S,3R,5R)-8-[2-(4-acetylpiperazin-1-yl)ethyl]-8-azabicyclo[3.2.1]oct-3-yl}amide dihydrochloride]
weight gain (hygroscopicity) [1]: less than 1%
change in potency ([4]; 6 months of storage, all conditions (25° C./60% RH, 40° C./75% RH, open and closed)): no detectable change in potency
increase of water content [4, 6]: 1.7%
water content (Karl Fischer) [4, 6]: 2.9%
increase of water content [4, 7]: 4.1%
water content (Karl Fischer) [4, 7]: 5.3%
initial potency compared with the freebase (HPLC area percentage) ([4]; initial): 82.4%
water content (Karl Fischer) ([4]; initial): 1.2%
chemical degradation by HPLC [4, 8]: no chemical degradation
gain in moisture content [4, 8]: < 2%
DSC: temperature below which no (significant) thermal events [2]: about 200 °C
simultaneous melting and decomposition temperature (DSC and TGA) [2]: 180-200 °C
TGA: temperature below which no (significant) thermal event [3]: about 180 °C

Molecule: CC(=O)N1CCN(CCN2[C@@H]3CC[C@H]2CC(NC(=O)c2nn(C(C)C)c4ccccc24)C3)CC1.O=C(O)/C=C/C(=O)O (stereo partly drawn) [fumarate, fumaric Acid Salt of 1-isopropyl-1H-indazole-3-carboxylic acid {(1S,3R,5R)-8-[2-(4-acetylpiperazin-1-yl)ethyl]-8-azabicyclo[3.2.1]oct-3-yl}amide]
DSC endotherm (temperature of endothermic heat flow) [2]: <150 °C
TGA: temperature of weight loss [3]: loss ˜100 °C
TGA: weight loss [3]: 5-6% wt.

Molecule: CC(=O)N1CCN(CCN2[C@@H]3CC[C@H]2C[C@@H](NC(=O)c2nn(C(C)C)c4ccccc24)C3)CC1.O=P(O)(O)O [phosphate (1), Phosphoric Acid Salt of 1-isopropyl-1H-indazole-3-carboxylic Acid {(1S,3R,5R)-8-[2-(4-acetylpiperazin-1-yl)ethyl]-8-azabicyclo[3.2.1]oct-3-yl}amide]
TGA: temperature of weight loss [3]: loss <100 °C
TGA: weight loss [3]: 3-5% wt.

Molecule: benzoate
DSC endotherm (temperature of endothermic heat flow) [2]: <150 °C
TGA: temperature of weight loss [3]: ˜100 °C

Molecule: CC(=O)N1CCN(CCN2[C@@H]3CC[C@H]2CC(NC(=O)c2nn(C(C)C)c4ccccc24)C3)CC1.Cl.Cl.O (stereo partly drawn) [hydrate, Crystalline hydrate of 1-isopropyl-1H-indazole-3-carboxylic Acid {(1S,3R,5R)-8-[2-(4-acetylpiperazin-1-yl)ethyl]-8-azabicyclo[3.2.1]oct-3-yl}amide dihydrochloride]
change in PXRD peak positions ([5]; 8 weeks vs 12 weeks at 40° C./75% RH): no significant change in PXRD peak positions
stability of hydrate form on storage ([5]; 40° C. and 75% RH): stable

Molecule: O=[N+]([O-])O [nitrate]
DSC endotherm (temperature of endothermic heat flow) [2]: <100 °C
TGA: temperature of weight loss [3]: loss ˜150 °C
TGA: weight loss [3]: 5-6% wt.
